Tests used:
[1] = tested on: T-cells; experiment: In vivo activity: CD25 expression on CD4+ or CD8+ T-cells of mice stimulated with anti-CD3 antibody; conditions: 2 μg anti-CD3 antibody, 24 hours
Procedure: (§1) A method of determining the pharmacodynamic profile of Cbl-b inhibitors was performed by dosing strains of mice with competent immune systems such as C57BL/6 or BALB/c with a Cbl-b inhibitor. The Cbl-b inhibitor was dissolved in a suitable formulation and administered by one of various routes such as intravenous (IV), intraperitoneal (IP), subcutaneous (SC), or oral (PO), at a suitable dose level and frequency (e.g. twice per day BID or thrice per day TID) as informed by prior pharmacokinetic and tolerability studies. Following administration of the Cbl-b inhibitor, T-cells and indirectly other immune cells (e.g. via cytokine production) were stimulated in vivo by administration of an anti-CD3 antibody or antigen-binding fragment thereof in PBS at defined amounts such as 2 μg or 10 μg per animal by routes such as IV or IP (See Hirsh et al., J. Immunol., 1989; Ferran, et al., Eur. J. Immunol., 1990). Additional study control arms included groups of mice treated with a vehicle formulation alone (i.e., formulation without the Cbl-b inhibitor and anti-CD3 antibody), a formulation containing the Cbl-b inhibitor alone, a formulation containing the anti-CD3 antibody alone, PBS alone, or combinations of these agents. The level of immune activation was then assessed by analysis of plasma cytokine levels and/or expression of activation markers on immune cells (e.g. T-cells). Blood or lymphoid organs (e.g. spleen) were collected at defined time points (e.g. 8 hours or 24 hours). Blood samples were processed to collect plasma for determination of cytokine levels using standard methods known in the art. Cytokines measured included IL-2, IFNγ, and TNFα. Additional blood samples and lymphoid tissues were processed for flow cytometric analysis of immune cells (e.g. T-cells) using standard methods to determine expression of cell type-specific markers and activation markers such as CD25 and/or CD69. Augmentation of immune stimulation by Cbl-b inhibitor administration was assessed by comparing the relative concentrations of cytokines in plasma, or the expression levels of activation markers on immune cells between appropriate groups (e.g. mice treated with Cbl-b inhibitor and 2 μg anti-CD3 antibody versus mice treated with vehicle and 2 μg anti-CD3 antibody).
(§2) Cbl-b inhibitors were tested to determine their ability to induce or enhance the level of cytokines (e.g. IL-2, IFNγ, and TNFα) in blood obtained from treated mice stimulated with an anti-CD3 antibody, which is indicative of modulation of the immune response. Cbl-b inhibitors were also tested to determine their ability to induce or enhance the expression of cell surface markers on T-cells (e.g. CD25 and/or CD69) isolated from treated mice stimulated with an anti-CD3 antibody, which is indicative of modulation of the immune response.
(§3) Readouts were reported as fold change over baseline. The fold change was calculated from the mean value of mice treated with Cbl-b inhibitor and 2 μg anti-CD3 antibody, with the baseline defined as the mean value of mice treated with vehicle and 2 μg anti-CD3 antibody. Increases in the percentage of cells with surface expression of CD25 on CD4+ T-cells or CD8+ T-cells greater than 1.5-fold over baseline at 24 hours were considered a positive response. Increases in the plasma concentration of IL-2, IFNγ, and TNFα greater than 1.5-fold over baseline at 8 hours post-stimulation were also considered a positive response (Table 8). Fold changes were ranked into bins according to their readouts as follows: A indicates >2.50, B indicates 2.01-2.50, C indicates 1.51-2.00, D indicates 1.00-1.50, and E indicates <1.00.

[2] = tested on: IL-2, IFNγ, and TNFα in plasma; experiment: In vivo activity: plasma cytokine levels (IL-2, IFNγ, TNFα) in mice stimulated with anti-CD3 antibody; conditions: 2 μg anti-CD3 antibody, 8 hours post-stimulation
Procedure: as §1, §2, §3

[3] = tested on: primary human B cells; experiment: B cell activation assay (CD69 on anti-IgM stimulated B cells); assay type: cell-based; conditions: AUC of dose response curve (10 μM to 1 nM) of CD69 MFI normalized to DMSO control
Procedure: Peripheral blood mononuclear cells (PBMC) were obtained either: 1) by using Ficoll-Paque™ (GE Healthcare) for separation of peripheral blood hematopoietic cells from buffy coats of healthy human donors; or 2) directly from LeukoPak donations. Human primary B cells were isolated from the PBMCs utilizing negative selection with commercial kits following the manufacturer's protocol (StemCells Catalog #17954) to yield >95% CD20+ cells assessed by flow cytometry. Primary human B cells were plated at 0.7-1×10^5 per well in a 96-well plate with Cbl-b inhibitors over a dose ranging from 10 μM to 1 nM and incubated at 37° C. 5% CO2, with a final DMSO concentration of <0.5%. Cells were stimulated with anti-IgM for 20 hours at 37° C. 5% CO2. Surface activation markers on mature CD20^+ IgD^+ B cells were monitored by FACS using an anti-CD69 antibody (BD Biosciences).
Cbl-b inhibitors were tested to determine their ability to induce or enhance surface expression of cell surface markers on B cells (e.g., CD69), which is indicative of B cell activation.
Readouts were reported as area under curve (AUC) of the dose response curve of CD69 mean fluorescence intensity (MFI) normalized to the DMSO control. Baseline for this study was the measurement obtained from primary human B cells treated with DMSO in the presence of 2.5 μg/mL of anti-IgM-F(ab′)2. […] Compounds were ranked into bins according to their readouts as follows: A indicates ≤0.5, B indicates 0.5-1.00, C indicates 1.01-1.50, and D indicates ≥1.51.

[4] = target: T1, Cbl-b (Homo sapiens, UniProt Q13191); experiment: Cbl-b activity assay (Cbl-b inhibition assay), TR-FRET of Cbl-b interaction with UbcH5B-Ub; assay type: biochemical; conditions: assay buffer with 100 mM NaCl, 60 nM Src kinase; read-out: Cbl-b activity IC50
Outline: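 Compound-treated Cbl-b was incubated 1.5 h with Src kinase (60 nM final; 30 nM for asterisked values, which also used 50 mM instead of 100 mM NaCl), 1 mM ATP and 5 mM MgCl2. Binding to fluorescent Ub-loaded UbcH5B (C85K mutant) was then read by TR-FRET after 1 h more.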

[5] = target: T1, Cbl-b; experiment: Cbl-b inhibition assay (Cbl-b activity assay, FRET, Biological Example 1; 100 mM NaCl, 60 nM Src kinase); assay type: biochemical; conditions: upper bound stated in text lists; read-out: IC50 values in the Cbl-b inhibition assay of Biological Example 1
Outline: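 Steps: Src kinase phosphorylates N-terminal biotinylated Avi-tagged Cbl-b; phosphorylated Cbl-b binds Bodipy-fluorescein ubiquitin-loaded UbcH5B; streptavidin-terbium on Cbl-b sits close to the fluorescein label, producing FRET. Inhibitors block UbcH5B-Ub binding.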

[6] = target: Cbl-b (residues 36-427) (Homo sapiens, UniProt Q13191); experiment: Cbl-b binding assay (SPR, Biacore T200); conditions: 20° C., 1:1 binding model
Outline: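 NeutrAvidin capture chip, 20° C; 50 s injections at 50 μl/min, 90-180 s dissociation; 0.3 M NaCl regeneration. Asterisked column: 50 mM NaCl buffer and 30 nM Src kinase in place of 100 mM NaCl and 60 nM Src kinase. 1:1 fit.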

T1 sequence (Q13191 36-427): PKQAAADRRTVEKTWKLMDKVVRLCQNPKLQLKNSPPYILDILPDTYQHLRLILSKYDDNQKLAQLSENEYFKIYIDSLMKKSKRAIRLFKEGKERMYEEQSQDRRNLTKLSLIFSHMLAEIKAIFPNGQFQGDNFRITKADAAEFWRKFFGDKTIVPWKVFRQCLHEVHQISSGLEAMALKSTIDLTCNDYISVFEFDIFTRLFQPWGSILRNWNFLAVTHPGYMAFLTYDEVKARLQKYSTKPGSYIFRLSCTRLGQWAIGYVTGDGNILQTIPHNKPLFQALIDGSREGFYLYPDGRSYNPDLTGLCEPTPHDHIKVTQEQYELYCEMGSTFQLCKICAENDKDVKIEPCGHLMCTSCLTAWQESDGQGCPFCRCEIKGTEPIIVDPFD
Sequence of Cbl-b (residues 36-427) (Q13191 36-427): as above

SMILES | CD4+ T-cell % CD25+ ([1]; 90 mpk IP BID) | CD8+ T-cell % CD25+ ([1]; 90 mpk IP BID) | CD4+ T-cell % CD25+ ([1]; 90 mpk IP TID) | CD8+ T-cell % CD25+ ([1]; 90 mpk IP TID) | IFNγ plasma concentration ([2]; 90 mpk IP BID) | IL-2 plasma concentration ([2]; 90 mpk IP BID) | TNFα plasma concentration ([2]; 90 mpk IP BID) | IFNγ plasma concentration ([2]; 90 mpk IP TID) | IL-2 plasma concentration ([2]; 90 mpk IP TID) | TNFα plasma concentration ([2]; 90 mpk IP TID) | CD69 MFI AUC [3] | IC50 [4] | CD4+ T-cell % CD25+ ([1]; 135 mpk PO BID) | CD8+ T-cell % CD25+ ([1]; 135 mpk PO BID) | IC50 [5] | further results
C[C@H](Sc1nncn1C)c1cccc(NC(=O)c2cccc(C(F)(F)F)n2)c1 [Compound 57a, (S)-N-(3-(1-((4-methyl-4H-1,2,4-triazol-3-yl)thio)ethyl)phenyl)-6-(trifluoromethyl)picolinamide] | D (D indicates 1.00-1.50) | E (E indicates <1.00) | D (D indicates 1.00-1.50) | C (C indicates 1.51-2.00) | D (D indicates 1.00-1.50) | A (A indicates >2.50) | A (A indicates >2.50) | B (B indicates 2.01-2.50) | A (A indicates >2.50) | A (A indicates >2.50) | B (B indicates 0.5-1.00) |  |  |  |  | 
C[C@@H](Sc1nncn1C)c1cccc(NC(=O)c2cccc(C(F)(F)F)n2)c1 [Compound 57b, (R)-N-(3-(1-((4-methyl-4H-1,2,4-triazol-3-yl)thio)ethyl)phenyl)-6-(trifluoromethyl)picolinamide] | C (C indicates 1.51-2.00) | E (E indicates <1.00) | E (E indicates <1.00) | D (D indicates 1.00-1.50) | E (E indicates <1.00) | E (E indicates <1.00) | D (D indicates 1.00-1.50) | E (E indicates <1.00) | E (E indicates <1.00) | E (E indicates <1.00) | A (A indicates ≤0.5) |  |  |  |  | 
C[C@@H](Cc1nncn1C)c1cccc(N2Cc3c(cccc3C(F)(F)F)C2=O)c1 [Compound 255b] |  |  |  |  |  |  |  |  |  |  |  | 1 to 3 µM | E (E indicates <1.00) | E (E indicates <1.00) | ≤ 10 µM | CD4+ T-cell % CD25+ ([1]; 180 mpk PO BID): E (E indicates <1.00); CD8+ T-cell % CD25+ ([1]; 180 mpk PO BID): E (E indicates <1.00); Kd [6]: 3 to 10 µM
Cn1cnnc1CC1(c2cccc(N3Cc4c(cc(CN5CCC(F)CC5)cc4C(F)(F)F)C3=O)c2)COC1 [Compound 489, 6-[(4-fluoropiperidin-1-yl)methyl]-2-(3-{3-[(4-methyl-1,2,4-triazol-3-yl)methyl]oxetan-3-yl}phenyl)-4-(trifluoromethyl)-3H-isoindol-1-one] |  |  |  |  |  |  |  |  |  |  |  | < 0.1 µM | C (C indicates 1.51-2.00) | D (D indicates 1.00-1.50) | ≤ 0.1 µM | 
C[C@@H](c1cc2c(c(C(F)(F)F)c1)CN(c1cccc(C3(Cc4nncn4C)COC3)c1)C2=O)N1CCC(F)CC1 [Example 622a, (S)-6-(1-(4-fluoropiperidin-1-yl)ethyl)-2-(3-(3-((4-methyl-4H-1,2,4-triazol-3-yl)methyl)oxetan-3-yl)phenyl)-4-(trifluoromethyl)isoindolin-1-one] |  |  |  |  |  |  |  |  |  |  |  |  | B (B indicates 2.01-2.50) | D (D indicates 1.00-1.50) |  | 
C[C@H](c1cc2c(c(C(F)(F)F)c1)CN(c1cccc(C3(Cc4nncn4C)COC3)c1)C2=O)N1CCC(F)CC1 [Example 622b, (R)-6-(1-(4-fluoropiperidin-1-yl)ethyl)-2-(3-(3-((4-methyl-4H-1,2,4-triazol-3-yl)methyl)oxetan-3-yl)phenyl)-4-(trifluoromethyl)isoindolin-1-one] |  |  |  |  |  |  |  |  |  |  |  |  | B (B indicates 2.01-2.50) | D (D indicates 1.00-1.50) |  | 

Source: US20220324835A1 (Nurix Therapeutics, Inc., priority 2018, published 2022)
